Experimental data: patent US9999620B2, “CaMKK-β as a target for treating cancer” (Duke University, priority 2010, dated 2018)

Columns and labels:
Assay type in all cases: cell-based, human
VCaP cells [1] = experiment: Cell proliferation assay (FluoReporter Blue DNA content); details: +/-1 nM R1881 and +/-30 mM STO-609 on d 3, d 5, d 7, read on d 10
Excerpt: FIG. 6. CaMKKβ activity in androgen-mediated cell migration in prostate cancer cells. […] Cell lysates were then subjected to western blot analysis and subsequent densitometry (right). Phospho-[…]) levels were normalized to total CaMKI. Results are expressed as fold induction/phosphorylation over double vehicle-treated cells+SE (n=2). *, P<0.05 indicates significant changes from vehicle-treated cells. ^#, P<0.05 indicates significant changes from vehicle (no STO-609)-treated cells. B, VCaP cells were plated in 96-well plates and grown for 3 d. […] On d 10, cells were lysed and the relative number of cells was measured with the fluorescent DNA binding dye FluoReporter Blue. Each sample was performed in triplicate, and results from a representative experiment are shown. […] Cells were then dissociated and reseeded into the top chamber for a Boyden dual chamber migration assay. […] After 16 h, migrated cells were fixed, stained with crystal violet and counted in three different microscopic fields and added together. […] Proliferation assays were performed as previously described (12) by measuring the cellular DNA content using the FluoReporter Blue Fluorometric double-stranded DNA Quantitation Kit (Invitrogen) as per the manufacturer's protocol.

LNCaP cells = experiment: Matrigel extracellular matrix invasion assay; details: 1 h +/-30 mM STO-609, overnight +/-10 nM R1881
Experimental: FIG. 7. CaMKKβ activity in the androgen-mediated migration and invasion of prostate cancer cells. A, LNCaP cells were plated in 96-well plates and grown for 3 d. […] On d 10, cells were lysed and the relative number of cells was measured with the fluorescent DNA binding dye FluoReporter Blue. Each sample was performed in triplicate, and results from a representative experiment are shown. […] Cells were then dissociated and reseeded into the top chamber for a Boyden migration or Matrigel extracellular matrix invasion assay. Fresh medium with the corresponding treatments was added to the top and bottom chambers while either no chemoattractant or 5% FBS (serum) was added to the bottom chamber. After 16 h, migrated cells were fixed, stained and counted in three different microscopic fields and added together. […] C top, LNCaP cells were transfected with indicated siRNAs. […] D right, LNCaP cells stably expressing either GAL4 (control) or CaMKKβ were subjected to a migration assay as described in B using +/−5% FBS as chemoattractant. The results are expressed as mean+SE (n=3). *, significant changes from LNCaP-GAL4 cells. D left, western blot confirming CaMKKβ […]expression. Migration and invasion assays. Boyden dual chamber migration assays were performed as previously described (4). […]

VCaP cells [2] = experiment: Boyden dual chamber migration assay; details: 1 h +/-30 mM STO-609, overnight +/-10 nM R1881, 16 h migration, 5% FBS chemoattractant
Excerpt: FIG. 6. CaMKKβ activity in androgen-mediated cell migration in prostate cancer cells. […] Cell lysates were then subjected to western blot analysis and subsequent densitometry (right). Phospho-[…]) levels were normalized to total CaMKI. Results are expressed as fold induction/phosphorylation over double vehicle-treated cells+SE (n=2). *, P<0.05 indicates significant changes from vehicle-treated cells. ^#, P<0.05 indicates significant changes from vehicle (no STO-609)-treated cells. B, VCaP cells were plated in 96-well plates and grown for 3 d. […] On d 10, cells were lysed and the relative number of cells was measured with the fluorescent DNA binding dye FluoReporter Blue. Each sample was performed in triplicate, and results from a representative experiment are shown. […] Cells were then dissociated and reseeded into the top chamber for a Boyden dual chamber migration assay. Fresh medium with the corresponding treatments was added to the top and bottom chambers while either no chemoattractant or 5% FBS (serum) was added to the bottom chamber. After 16 h, migrated cells were fixed, stained with crystal violet and counted in three different microscopic fields and added together. […]

O=C(O)c1ccc2c3c1cccc3c(=O)n1c3ccccc3nc21 [STO-609]
effect on cell number (androgen-mediated cellular growth) (VCaP cells [1]): no significant effect | androgen-mediated invasion through Matrigel extracellular matrix (LNCaP cells): inhibited androgen-mediated invasion | androgen-mediated migration (VCaP cells [2]): blocked the androgen-mediated migration
